Source: DBAASP
Converted amounts (≈) assume the structure as drawn. “And” between values parts separate entries of the source, which are not always exact repeats. Identical values can stand only once.

Tests used:
Assay in all cases: ≥ marks a high value that may be exact or a test limit, other limits are often not marked, values filed in µg/mL are converted to µM
[1] = test system: Pseudomonas aeruginosa
[2] = test system: Enterococcus faecium
[3] = test system: Escherichia coli
[4] = test system: Acinetobacter baumannii
[5] = test system: Staphylococcus aureus
[6] = test system: Staphylococcus aureus USA 300
[7] = test system: Klebsiella pneumoniae
[8] = test system: Escherichia coli ATCC 25922
[9] = test system: Pseudomonas aeruginosa PAO1
[10] = test system: Klebsiella pneumoniae ATCC 13883
[11] = test system: Staphylococcus aureus ATCC BAA-1556
[12] = test system: Micrococcus luteus

SMILES	MIC [6] [µM]	MIC [8] [µM]	MIC [9] [µM]	MIC [10] [µM]	MIC [11] [µM]	also measured
CC[C@H](C)[C@H](NC(=O)[C@@H](NC(=O)[C@H](CO)NC(=O)[C@@H](NC(=O)[C@@H](NC(=O)[C@H](CCCCN)NC(=O)CNC(=O)[C@H](CC(C)C)NC(=O)[C@H](CC(C)C)NC(=O)CNC(=O)CNC(=O)[C@H](CC(C)C)NC(=O)[C@H](CC(C)C)NC(=O)CNC(=O)[C@H](CCCCN)NC(=O)[C@H](CO)NC(=O)[C@@H](NC(=O)[C@H](CCCCN)NC(=O)[C@H](Cc1c[nH]c2ccccc12)NC(=O)[C@H](Cc1c[nH]c2ccccc12)NC(=O)[C@H](CCCCN)NC(=O)[C@H](CCCCN)NC(=O)[C@@H](N)CC(C)C)[C@@H](C)O)C(C)C)[C@@H](C)O)C(C)C)C(=O)N[C@@H](CCCCN)C(=O)O [LKKWWKTSKGLLGGLLGKVTSVIK]	5.66 (≈ 14.9 µg/mL)					MIC [1]: 2.83 µM and 2 µM and 5.66 µM; MIC [2]: 1 µM (≈ 2.64 µg/mL); MIC [3]: 1.41 µM (≈ 3.74 µg/mL); MIC [4]: 2.83 µM and 1 µM; MIC [5]: 2 µM (≈ 5.28 µg/mL); MIC [7]: 2.83 µM (≈ 7.47 µg/mL)
CC(C)C[C@H](NC(=O)[C@H](CC(C)C)NC(=O)[C@H](CCCCN)NC(=O)CNC(=O)[C@H](CC(C)C)NC(=O)[C@H](CC(C)C)NC(=O)[C@H](CO)NC(=O)[C@H](CC(C)C)NC(=O)[C@H](CC(C)C)NC(=O)[C@H](CO)NC(=O)[C@H](CC(C)C)NC(=O)[C@H](C)NC(=O)CN)C(N)=O [GALSLLSLLGKLL]	0.78 (≈ 1.01 µg/mL)	3.1 (≈ 4.02 µg/mL)	12.5 (≈ 16.2 µg/mL)	6.2 (≈ 8.04 µg/mL)		
CC(C)C[C@H](NC(=O)[C@H](Cc1c[nH]c2ccccc12)NC(=O)[C@H](Cc1c[nH]c2ccccc12)NC(=O)[C@H](CC(C)C)NC(=O)[C@H](Cc1c[nH]c2ccccc12)NC(=O)[C@@H](N)Cc1c[nH]c2ccccc12)C(=O)N[C@@H](CCCN=C(N)N)C(=O)N[C@@H](Cc1c[nH]c2ccccc12)C(N)=O [WWLWWLRW]					6.25 (≈ 8.32 µg/mL)	
CC(C)C[C@H](NC(=O)[C@H](CC(C)C)NC(=O)[C@H](CCCCN)NC(=O)[C@H](CC(C)C)NC(=O)[C@H](CCCCN)NC(=O)[C@H](CC(C)C)NC(=O)[C@H](CO)NC(=O)[C@H](CC(C)C)NC(=O)[C@H](CC(C)C)NC(=O)[C@H](CC(C)C)NC(=O)[C@H](CO)NC(=O)[C@H](CC(C)C)NC(=O)CN)C(N)=O [GLSLLLSLKLKLL]	6.2 (≈ 8.74 µg/mL)	> 25	> 25	25 (≈ 35.2 µg/mL)		
CC[C@H](C)[C@H](NC(=O)[C@H](CCC(=O)O)NC(=O)[C@@H]1CCCN1C(=O)[C@H](CO)NC(=O)[C@H](Cc1ccccc1)NC(=O)[C@H](C)NC(=O)[C@@H](NC(=O)CNC(=O)[C@H](CC(C)C)NC(=O)[C@H](CCCCN)NC(=O)[C@H](C)NC(=O)[C@H](C)NC(=O)[C@H](CCSC)NC(=O)[C@@H](NC(=O)[C@@H](NC(=O)[C@@H](NC(=O)[C@H](CC(C)C)NC(=O)[C@H](CS)NC(=O)[C@H](CC(N)=O)NC(=O)CNC(=O)[C@H](CC(C)C)NC(=O)[C@H](CC(C)C)NC(=O)[C@@H](N)CCCN=C(N)N)[C@@H](C)O)C(C)C)C(C)C)[C@@H](C)O)C(=O)N[C@@H](CCC(N)=O)C(=O)N[C@@H](CS)C(=O)N[C@@H](C)C(=O)N[C@@H](Cc1c[nH]c2ccccc12)C(=O)N[C@@H](CCC(N)=O)C(=O)N[C@@H](CCCCN)C(=O)O [RLLGNCLTVVMAAKLGTAFSPEIQCAWQK]						MIC [12]: 31.2 µM (≈ 98.3 µg/mL)
CC(C)C[C@H](NC(=O)[C@H](CC(C)C)NC(=O)[C@H](CC(C)C)NC(=O)[C@H](CC(C)C)NC(=O)[C@H](CCCCN)NC(=O)[C@H](CCCCN)NC(=O)[C@H](CC(C)C)NC(=O)[C@H](CC(C)C)NC(=O)[C@@H](N)CC(C)C)C(N)=O [LLLKKLLLL]					≥ 100	
CC(C)C[C@H](NC(=O)[C@H](CC(C)C)NC(=O)[C@H](CC(C)C)NC(=O)[C@H](CC(C)C)NC(=O)[C@H](CC(C)C)NC(=O)[C@H](CCCCN)NC(=O)[C@H](CCCCN)NC(=O)[C@H](CC(C)C)NC(=O)[C@@H](N)CC(C)C)C(N)=O [LLKKLLLLL]					12.5 (≈ 13.3 µg/mL)	
CC(C)C[C@H](NC(=O)[C@H](Cc1c[nH]c2ccccc12)NC(=O)[C@H](CCCN=C(N)N)NC(=O)[C@H](CC(C)C)NC(=O)[C@H](Cc1c[nH]c2ccccc12)NC(=O)[C@H](CCCN=C(N)N)NC(=O)[C@H](CCCN=C(N)N)NC(=O)[C@H](Cc1c[nH]c2ccccc12)NC(=O)[C@@H](N)CCCCN)C(N)=O [KWRRWLRWL]					3.12 (≈ 4.37 µg/mL)	
CC(C)C[C@H](NC(=O)[C@H](CC(C)C)NC(=O)[C@H](CCCCN)NC(=O)CNC(=O)[C@H](CC(C)C)NC(=O)[C@H](CO)NC(=O)[C@H](CO)NC(=O)[C@H](CC(C)C)NC(=O)CN)C(N)=O [GLSSLGKLL]	25 (≈ 22.2 µg/mL)	> 25	> 25	25 (≈ 22.2 µg/mL)		
